According to publication PMC9260081, “Design, Synthesis, and Evaluation of Anticonvulsant Activities of New Triazolopyrimidine Derivatives” (Frontiers in Chemistry, 2022):
Where two headings read alike, the source gives them in different places.

How the values were obtained:
[1] = system: ability to maintain equilibrium on rotating rod; assay: Neurotoxicity screening (rotarod test); assay type: in vivo; details: i.p., dosages 30, 100, 300 mg/kg
Procedure: (§1) Male Kunming mice with weights from 18 to 22 g were used in all the pharmacological experiments. The mice were housed in the standard cages with 10 each, where a controlled temperature (25°C ± 2°C) with a 12 h light/dark cycle was maintained. All animals had free access to food and water. All experiments and procedures involving animals were carried out according to the Guide for the Care and Use of Laboratory Animals (National Academies Press, Washington, D.C., United States). Approval from the local medical ethical committee was obtained before the experiment.
The rotarod test was used to evaluate the neurotoxicity of the synthesized compounds. Before the formal experiments, mice were trained to climb on a rotating rod of diameter 3.2 cm with the rotation speed of 10 rpm. Test compounds in the three doses were intraperitoneally injected into the trained mice. […] The rough neurotoxic dose was obtained in which mice cannot maintain equilibrium on the rod for at least 1 min. The quantitative neurotoxic dose (TD50) of the test compounds was measured and calculated with the same method described in the MES test.

MES-induced seizures = assay: Maximal electroshock seizure (MES) test; assay type: in vivo, mice; details: Mus musculus, ip, mice, dosages 30, 100, 300 mg/kg, read-out: MES screening, minimum dose whereby bioactivity was demonstrated in half or more of the mice
Procedure: as §1
In the MES test, mice were subjected to ear stimulation using a 0.2 s 60-Hz 50-mA alternating current to elicit seizures. Tonic hind limb extension was considered as the seizure occurring, and the vanishing of tonic hind limb extension indicates the protection against the MES-induced seizures. Mice were injected intraperitoneally with test compounds at doses of 300, 100, and 30 mg/kg to evaluate their general anticonvulsant activity. Half and 4 h intervals were chosen to test the anti-MES activity. […] A series of doses of the tested compounds were injected into the mice with 10 in one group.

PTZ-induced seizures = assay: Subcutaneous pentylenetetrazole (PTZ) test; assay type: in vivo, mice; details: Mus musculus, ip, mice, dosages 30, 100, 300 mg/kg, read-out: PTZ screening, minimum dose whereby bioactivity was demonstrated in half or more of the mice
Procedure: as §1
In the PTZ test, mice were subcutaneously administered with PTZ at the dose of 85 mg/kg. At this dose, mice can be elicited a threshold seizure characterized by an episode of clonic spasms and tonic spasms. After being treated with test compounds at doses of 300, 100, and 30 mg/kg, the mice were considered protected if a single episode of clonic spasms of more than 5 s duration was not obtained. The quantitative anticonvulsant activity (ED50) in the PTZ model was determined and calculated with the same method described in the MES test.

## Fc1ccc(-c2ccnc3ncnn23)cc1 [Compound 3b, 7-(4-Fluorophenyl)-[1,2,4]triazolo[1,5-a]pyrimidine]
[1]; 0.5 h after injection
  NT screening (rotarod), minimum neurotoxic dose in half or more of the mice: — (A dash indicates the absence of anticonvulsant activity and neurotoxicity at the maximum dose administered (300 mg/kg))
[1]; 4 h after injection
  NT screening (rotarod), minimum neurotoxic dose in half or more of the mice: — (A dash indicates the absence of anticonvulsant activity and neurotoxicity at the maximum dose administered (300 mg/kg))
MES-induced seizures; 0.5 h after injection
  minimal effective dose: 300 mg/kg
MES-induced seizures; 4 h after injection
  minimal effective dose: > 300 mg/kg
PTZ-induced seizures; 0.5 h after injection
  minimal effective dose: 300 mg/kg
PTZ-induced seizures; 4 h after injection
  minimal effective dose: > 300 mg/kg

## Clc1ccc(-c2ccnc3ncnn23)cc1 [Compound 3d, 7-(4-Chlorophenyl)-[1,2,4]triazolo[1,5-a]pyrimidine]
[1]; 0.5 h after injection
  NT screening (rotarod), minimum neurotoxic dose in half or more of the mice: — (A dash indicates the absence of anticonvulsant activity and neurotoxicity at the maximum dose administered (300 mg/kg))
[1]; 4 h after injection
  NT screening (rotarod), minimum neurotoxic dose in half or more of the mice: — (A dash indicates the absence of anticonvulsant activity and neurotoxicity at the maximum dose administered (300 mg/kg))
MES-induced seizures; 0.5 h after injection
  minimal effective dose: > 300 mg/kg
MES-induced seizures; 4 h after injection
  minimal effective dose: > 300 mg/kg
PTZ-induced seizures; 0.5 h after injection
  minimal effective dose: > 300 mg/kg
PTZ-induced seizures; 4 h after injection
  minimal effective dose: > 300 mg/kg

## Clc1ccc(-c2ccnc3ncnn23)c(Cl)c1 [Compound 3e, 7-(2,4-Dichlorophenyl)-[1,2,4]triazolo[1,5-a]pyrimidine]
[1]; 0.5 h after injection
  NT screening (rotarod), minimum neurotoxic dose in half or more of the mice: — (A dash indicates the absence of anticonvulsant activity and neurotoxicity at the maximum dose administered (300 mg/kg))
[1]; 4 h after injection
  NT screening (rotarod), minimum neurotoxic dose in half or more of the mice: — (A dash indicates the absence of anticonvulsant activity and neurotoxicity at the maximum dose administered (300 mg/kg))
MES-induced seizures; 0.5 h after injection
  minimal effective dose: 100 mg/kg
MES-induced seizures; 4 h after injection
  minimal effective dose: > 300 mg/kg
PTZ-induced seizures; 0.5 h after injection
  minimal effective dose: 100 mg/kg
PTZ-induced seizures; 4 h after injection
  minimal effective dose: > 300 mg/kg

## Brc1ccc(-c2ccnc3ncnn23)cc1 [Compound 3f, 7-(4-Bromophenyl)-[1,2,4]triazolo[1,5-a]pyrimidine]
[1]; 0.5 h after injection
  NT screening (rotarod), minimum neurotoxic dose in half or more of the mice: — (A dash indicates the absence of anticonvulsant activity and neurotoxicity at the maximum dose administered (300 mg/kg))
[1]; 4 h after injection
  NT screening (rotarod), minimum neurotoxic dose in half or more of the mice: — (A dash indicates the absence of anticonvulsant activity and neurotoxicity at the maximum dose administered (300 mg/kg))
MES-induced seizures; 0.5 h after injection
  minimal effective dose: > 300 mg/kg
MES-induced seizures; 4 h after injection
  minimal effective dose: > 300 mg/kg
PTZ-induced seizures; 0.5 h after injection
  minimal effective dose: > 300 mg/kg
PTZ-induced seizures; 4 h after injection
  minimal effective dose: > 300 mg/kg

## O=[N+]([O-])c1ccc(-c2ccnc3ncnn23)cc1 [Compound 3g, 7-(4-Nitrophenyl)-[1,2,4]triazolo[1,5-a]pyrimidine]
[1]; 0.5 h after injection
  NT screening (rotarod), minimum neurotoxic dose in half or more of the mice: — (A dash indicates the absence of anticonvulsant activity and neurotoxicity at the maximum dose administered (300 mg/kg))
[1]; 4 h after injection
  NT screening (rotarod), minimum neurotoxic dose in half or more of the mice: — (A dash indicates the absence of anticonvulsant activity and neurotoxicity at the maximum dose administered (300 mg/kg))
MES-induced seizures; 0.5 h after injection
  minimal effective dose: > 300 mg/kg
MES-induced seizures; 4 h after injection
  minimal effective dose: > 300 mg/kg
PTZ-induced seizures; 0.5 h after injection
  minimal effective dose: > 300 mg/kg
PTZ-induced seizures; 4 h after injection
  minimal effective dose: > 300 mg/kg

## Cc1ccc(-c2ccnc3ncnn23)cc1 [Compound 3h, 7-(P-tolyl)-[1,2,4]triazolo[1,5-a]pyrimidine]
[1]; 0.5 h after injection
  NT screening (rotarod), minimum neurotoxic dose in half or more of the mice: — (A dash indicates the absence of anticonvulsant activity and neurotoxicity at the maximum dose administered (300 mg/kg))
[1]; 4 h after injection
  NT screening (rotarod), minimum neurotoxic dose in half or more of the mice: — (A dash indicates the absence of anticonvulsant activity and neurotoxicity at the maximum dose administered (300 mg/kg))
MES-induced seizures; 0.5 h after injection
  minimal effective dose: 300 mg/kg
MES-induced seizures; 4 h after injection
  minimal effective dose: > 300 mg/kg
PTZ-induced seizures; 0.5 h after injection
  minimal effective dose: 100 mg/kg
PTZ-induced seizures; 4 h after injection
  minimal effective dose: > 300 mg/kg

## COc1ccc(-c2ccnc3ncnn23)cc1 [Compound 3i, 7-(4-Methoxyphenyl)-[1,2,4]triazolo[1,5-a]pyrimidine]
[1]; 0.5 h after injection
  NT screening (rotarod), minimum neurotoxic dose in half or more of the mice: — (A dash indicates the absence of anticonvulsant activity and neurotoxicity at the maximum dose administered (300 mg/kg))
[1]; 4 h after injection
  NT screening (rotarod), minimum neurotoxic dose in half or more of the mice: — (A dash indicates the absence of anticonvulsant activity and neurotoxicity at the maximum dose administered (300 mg/kg))
MES-induced seizures; 0.5 h after injection
  minimal effective dose: 300 mg/kg
MES-induced seizures; 4 h after injection
  minimal effective dose: > 300 mg/kg
PTZ-induced seizures; 0.5 h after injection
  minimal effective dose: 100 mg/kg
PTZ-induced seizures; 4 h after injection
  minimal effective dose: > 300 mg/kg
